Assay results as given in US11602534B2, “Pyrimidine derivative kinase inhibitors” (HEFEI INSTITUTES OF PHYSICAL SCIENCE, CHINESE ACADEMY OF …, priority 2017, dated 2023).
Counter-ions that a name gives are not always drawn.

Tests used:
Tel-cKit-BaF3 = experiment: Proliferation of Tel-cKit-BaF3 cells, CCK8 cell viability assay; type: cell-based, mouse; settings: Mus musculus; 72 hours, CCK8; stably expressing cKIT kinase
Outline: (§1)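 Murine BaF3 cells made IL-3-independent by retroviral transduction of human kinase domains fused to N-terminal TEL or TPR fragments; parental BaF3 included. Living cells quantified by CCK8 (dehydrogenase activity) read-out, giving GI50 in μM.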

TEL-PDGFRβ-BaF3 = experiment: Proliferation of TEL-PDGFRβ-BaF3 cells, CCK8 cell viability assay; type: cell-based; settings: Mus musculus, 72 hours, stably expressing PDGFRβ kinase
Outline: as §1

BaF3 = experiment: Proliferation of BaF3 cells, CCK8 cell viability assay; type: cell-based; settings: Mus musculus, 72 hours
Outline: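 GI50 (μM) from CCK8 read-out, which measures reductive dehydrogenase activity in living cells. Cells: parental mouse BaF3, or BaF3 stably expressing TEL-fused human cKIT, PDGFRα or PDGFRβ kinase domains and grown without IL-3, making them kinase-dependent.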

TEL-VEGFR2-BaF3 = experiment: Proliferation of TEL-VEGFR2-BaF3 cells, CCK8 cell viability assay; type: cell-based; settings: Mus musculus, 72 hours, stably expressing VEGFR2 kinase
Outline: as §1

[1] = tested on: human acute myeloid leukemia cell strain MV4-11; experiment: Proliferation of MV4-11 cells, Cell Titer-Glo; type: cell-based; settings: summary of Table 3
Method: (§2) In addition, in this example the inhibitory activity of preferred compounds (Compound 5 and Compound 135) was tested against the following cell strains: human acute myeloid leukemia cell strain MV4-11 (expressing FLT3/ITD mutant gene), human acute myeloid leukemia cell strain MOLM-13 (expressing FLT3/ITD mutant gene and wild-type FLT3 gene), human acute myeloid leukemia cell strain MOLM-14 (expressing FLT3/ITD mutant gene and wild-type FLT3 gene), human acute myeloid leukemia cell strain OCI-AML-3 (expressing FLT3 A680V mutant gene), human chronic lymphatic leukemia cell strain MEC-1, Chinese hamster lung (CHL) cells, Chinese hamster ovary (CHO) cells, wherein all the cells were purchased from ATCC. In the example the compounds of the present invention were added respectively into the above cells at different concentrations (0.000508 μM, 0.00152 μM, 0.00457 μM, 0.0137 μM, 0.0411 μM, 0.123 μM, 0.370 μM, 1.11 μM, 3.33 μM, 10 μM in DMSO) and the cells were incubated for 72 hours. The number of viable cells was determined by quantification of ATP in living cells using Cell Titer-Glo® (Promega, the USA) Luminescent Cell Viability Assay kit and thereby GI50 was calculated.

Tel-cKit/T670I-BaF3 = experiment: Proliferation of Tel-cKit/T670I-BaF3 cells, CCK8 cell viability assay; type: cell-based; settings: Mus musculus, 72 hours, stably expressing cKIT/T670I
Outline: as §1

TEL-PDGFRα-BaF3 = experiment: Proliferation of TEL-PDGFRα-BaF3 cells, CCK8 cell viability assay; type: cell-based; settings: Mus musculus, 72 hours, stably expressing PDGFRα kinase
Outline: as §1

FLT3-ITD-BaF3 = experiment: Proliferation of FLT3-ITD-BaF3 cells, CCK8 cell viability assay; type: cell-based; settings: Mus musculus, 72 hours, stably expressing FLT3/ITD
Outline: as §1

[2] = tested on: human acute myeloid leukemia cell strain MOLM-14; experiment: Proliferation of MOLM-14 cells, Cell Titer-Glo; type: cell-based; settings: summary of Table 3
Method: as §2

[3] = tested on: human acute myeloid leukemia cell strain MOLM-13; experiment: Proliferation of MOLM-13 cells, Cell Titer-Glo; type: cell-based; settings: summary of Table 3
Method: as §2

Tel-FLT3-BaF3 = experiment: Proliferation of Tel-FLT3-BaF3 cells, CCK8 cell viability assay; type: cell-based; settings: Mus musculus, 72 hours, stably expressing FLT3 kinase
Outline: as §1

Tel-RET-BaF3 = experiment: Proliferation of Tel-RET-BaF3 cells, CCK8 cell viability assay; type: cell-based; settings: Mus musculus, 72 hours, stably expressing RET kinase
P210/T315I-BaF3 = experiment: Proliferation of P210/T315I-BaF3 cells, CCK8 cell viability assay; type: cell-based; settings: Mus musculus, 72 hours, stably expressing BCR-ABL/T315I
Outline: as §1

P210-BaF3 = experiment: Proliferation of P210-BaF3 cells, CCK8 cell viability assay; type: cell-based; settings: Mus musculus, 72 hours, stably expressing BCR-ABL mutant activated kinase
Outline: as §1

[4] = Phosphorylation of STATS downstream of FLT3 in AML cells; type: cell-based, human; settings: MV-4-11, MOLM13 and MOLM-14; 4 hours; compounds 0.01-3 μM, PKC412 1 μM
Method: (§3) In cells having FLT3 gene and/or FLT3/ITD mutant gene, specifically, human acute myeloid leukemia cells MV4-11 (expressing FLT3/ITD mutant gene) cell strain and human acute myeloid leukemia cells MOLM-13 and MOLM-14 (expressing FLT3/ITD mutant gene and wild-type FLT3 gene) cell strains, Compound 5, Compound 135 and a FLT3 kinase inhibitor, PKC412 (purchased from Hao Yuan Chemexpress Company, Shanghai), which was used as the control, were evaluated for their effects in cells on phosphorylation of FLT3 and FLT3/ITD protein kinase and phosphorylation of the closely-related STATS protein which is downstream of FLT3 signaling pathways, as well as their effects on phosphorylation of other relevant protein kinases such as ERK and AKT, by assaying a number of cellular biochemical and functional endpoints. In addition, the effects on C-Myc and phosphorylation of the transcription factor NF-κB subunit p65 was also examined (FIGS. 1a-1f). Compound 5 and Compound 135 at different concentrations (0 μM, 0.01 μM, 0.03 μM, 0.1 μM, 0.3 μM, 1 μM, 3 μM in DMSO) and the FLT3 kinase inhibitor PKC412 (1 μM in DMSO) were used to treat acute myeloid leukemia cells MV-4-11, MOLM13 and MOLM-14 that had FLT3 and/or FLT3/ITD gene for 4 hours, respectively, and then the samples were collected. The effects of the compounds on the phosphorylation of proteins such as STATS, C-Myc, ERK, NF-κB p65, AKT in cells were tested (FIGS. 1a-1f).

C-Myc = experiment: Degradation of C-Myc in AML cells; type: cell-based, human; settings: MV-4-11, MOLM13 and MOLM-14; 4 hours; compounds 0.01-3 μM, PKC412 1 μM
Method: as §3

protein kinase FLT3 = experiment: Phosphorylation of FLT3 in AML cells; type: cell-based, human; settings: MV-4-11, MOLM-13 and MOLM-14 cell lines; 4 hours; compounds 0.01-3 μM, PKC412 1 μM
Method: as §3

Structure (SMILES) | GI50 (Tel-cKit-BaF3) [nM] | GI50 (TEL-PDGFRβ-BaF3) [nM] | GI50 (BaF3) [nM] | GI50 (TEL-VEGFR2-BaF3) [nM] | inhibition of MV4-11 (in words) [1] | GI50 (Tel-cKit/T670I-BaF3) [nM] | GI50 (TEL-PDGFRα-BaF3) [nM] | GI50 (FLT3-ITD-BaF3) [nM] | inhibition of MOLM14 (in words) [2] | inhibition of MOLM13 (in words) [3] | GI50 (Tel-FLT3-BaF3) [nM] | GI50 (Tel-RET-BaF3) [nM] | GI50 (P210/T315I-BaF3) [nM] | GI50 (P210-BaF3) [nM] | phosphorylation of STATS [4] | degradation of C-Myc (C-Myc) | phosphorylation of the protein kinase FLT3 (protein kinase FLT3)
CC(=O)Nc1cc(Oc2ccc(NC(=O)Cc3ccc(C(F)(F)F)cc3C(F)(F)F)cc2)ncn1 [Example 3, N-[4-(6-acetylamino-pyrimidin-4-yloxy)-phenyl]-2-(2,4-bis-trifluoromethyl-phenyl)-acetamide] | 1420 | 22 | > 10000 | 1090 | selectively and strongly inhibited | 8900 | 7 | 109 | selectively and strongly inhibited | selectively and strongly inhibited | 325 |  |  |  |  |  | 
CCCCC(=O)Nc1cc(Oc2ccc(NC(=O)Cc3ccccc3C(F)(F)F)cc2)ncn1 [Example 55, N-(6-{4-[2-(2-trifluoromethyl-phenyl)-acetylamino]-phenoxy}-pyrimidin-4-yl)-valeramide] | 4600 | 61 | > 10000 | 3900 |  | 6300 | 38 | 140 |  |  | 650 | 7900 | > 10000 | > 10000 |  |  | 
Cc1ccc(NC(=O)Nc2ccc(Oc3cc(NCCN4CCCC4)ncn3)cc2)cc1C(F)(F)F [Example 122, 1-(4-methyl-3-trifluoromethyl-phenyl)-3-{4-[6-(2-pyrrolidin-1-yl-ethylamino)-pyrimidin-4-yloxy]-phenyl}-urea] | 391 | 17 | 3370 | 170 |  | 394 | 8 | 36 |  |  | 206 | 4300 | 3920 | 3920 |  |  | 
Cc1ccc(NC(=O)NC2CCC(Oc3cc(NCCNC(=O)OC(C)(C)C)ncn3)CC2)cc1C(F)(F)F (stereo not shown) [Example 124, [2-(6-{4-[3-(4-methyl-3-trifluoromethyl-phenyl)-ureido]-cyclohexyloxy}-pyrimidin-4-ylamino)-ethyl]-aminotert-butyl Formate] | 2560 | 180 | 1170 | 890 |  | 2270 | 150 | 149 |  |  | 694 | 1920 | 1540 | 2800 |  |  | 
Cc1ccc(NC(=O)Nc2ccc(Oc3cc(N[C@@H](C)C(=O)O)ncn3)cc2)cc1C(F)(F)F [Example 126, (6-(4-(3-(4-methyl-3-(trifluoromethyl)phenyl)ureido)phenoxy)pyrimidin-4-yl)-L-aminopropionic Acid] | 1660 | 490 | > 10000 | 410 |  | 4680 | 140 | 153 |  |  | 797 | 6380 | > 10000 | > 10000 |  |  | 
Cc1ccc(NC(=O)NC2CCC(Oc3cc(NCCN)ncn3)CC2)cc1C(F)(F)F (stereo not shown) [Example 128, 1-{4-[6-(2-amino-ethylamino)-pyrimidin-4-yloxy]-cyclohexyl}-3-(4-methyl-3-trifluoromethyl-phenyl)-urea] | 8470 | 150 | > 10000 | 1190 |  | 641 | 110 | 87 |  |  | 150 | 3870 | 8730 | > 10000 |  |  | 
COCCNc1cc(Oc2ccc(NC(=O)Nc3ccc(CN4CCN(C)CC4)cc3)cc2)ncn1 [Example 172, 1-{4-[6-(2-methoxy-ethylamino)-pyrimidin-4-yloxy]-phenyl}-3-[4-(4-methyl-piperazin-1-ylmethyl)-phenyl]-urea] | > 10000 | 750 | > 10000 | 8300 |  | > 10000 | 110 | 340 |  |  | 1100 | > 10000 | > 10000 | > 10000 |  |  | 
CC(=O)Nc1cc(Oc2ccc(NC(=O)Cc3cc(F)cc(F)c3)cc2)ncn1 [Example 173, N-[4-(6-acetylamino-pyrimidin-4-yloxy)-phenyl]-2-(3,5-difluoro-phenyl)-acetamide] | 3600 | 39 | > 10000 | 1400 |  | > 10000 | 14 | 92 |  |  | 510 | > 10000 | > 10000 | > 10000 |  |  | 
CO[C@@H]1[C@H](N(C)C(=O)c2ccccc2)C[C@H]2O[C@]1(C)n1c3ccccc3c3c4c(c5c6ccccc6n2c5c31)C(=O)NC4 [PKC412, reference compound] |  |  |  |  |  |  |  |  |  |  |  |  |  |  | strongly inhibited | strongly inhibited | strongly inhibited
